Data: patent US20150209275A1, “Fast Dissolving Ocular Insert” (UNIVERSITY OF THE WITWATERSRAND, JOHANNESBURG, priority 2012, published 2015)
Blank lines part the entries; values can stand above or below the molecule they belong to.

How the values were obtained:
[1] = system: CAM; assay: Modified Hen Egg Chorioallontoic (HET-CAM) ocular toxicity test; settings: 0.3 mL sample on CAM, 5 minutes
Description: The methodology involved using hen's eggs (50-60 g fertile) that were purchased from a local hatchery (Bruce Hatcheries, South Africa) and less than a week old. The eggs were placed in commercial incubators (Surehatch, Brakenfell, South Africa) and rotated every 12 hours. On day 3, a hole was made and the albumin was removed. The eggs were sealed by sterile heated parafilm and left in an equatorial position. On day 5 and everyday thereafter eggs were candled for viability and non-viable ones were discarded. On day 10, a window (2×2 cm) was made and 2-3 mL saline (0.9% NaCl) was added and eggs were returned to the incubator. […] The eggs were then dosed with 0.3 mL of samples and observed for 5 minutes for any effects of injury in accordance with Table 11 and this was noted. Saline was used as a control for comparison purposes. Eggs were scored for severity of any reaction and time taken to occur (Table 11). At the end of the assay the embryos were discarded immediately by placing the eggs into a freezer −80° C. The following features were used for observation of injury: hemorrhage, vascular lysis and coagulation. FIG. 9 depicts the procedure for the test.
The period taken for any untoward reaction to occur was noted and the irritation threshold was determined ([…] concentration of samples required for a minimal reaction to occur). The irritation score was calculated by means of Equation 4.

[2] = as an oral drug; cited from earlier work
[3] = system: Excised rabbit corneas; assay: Ex vivo permeation, Franz diffusion cell; type: in vitro ADME; settings: excised rabbit cornea
Description: Franz diffusion cell apparatus was used to conduct ex vivo permeation studies. Excised rabbit corneas (11.83±0.04 mm in diameter and area […]) were mounted on the Franz diffusion cell apparatus (Permagear, Arnie Systems, USA) connected to a heating bath system for temperature control. The diffusion cell donor chamber was filled with 2 mL Simulated tear (lacrimal) fluid (SLF) (Gonjari et al., 2009) (which was maintained to simulate tear volume). 12 mL Simulated Aqueous Humor (SAH, pH 7.4, 37° C.) (Giannola et al., 2007) solution was contained in the receptor chamber. The cornea was placed such that the surface was in contact with the receptor solution which was continuously stirred by a magnetic stirrer at 20 rpm to simulate blinking. […] Aliquots of sample were withdrawn from the receptor compartment at regular intervals (30, 60, 120, 180, 240 minutes and 24 hours after insertion) and replaced with an equal volume of dissolution medium. Samples were then subjected to the quantification of drug through spectrophotometric analysis at 295 nm (Hewlett Packard 8453 Spectrophotometer, Germany) to determine the drug release and flux (rate of drug permeation per unit area). Drug flux values were calculated at the steady state per unit area by regression analysis of permeation. Drug flux values were calculated employing Equation 7. […]

Molecule: CCCCCCCCCCCCOS(=O)(=O)[O-].[Na+] [SDS, Sodium Dodecyl Sulphate]
HET-CAM Inference [1]: Severe
IS (irritation score) ([1]; scale 0-21, mean of 3 values, Sulphate): 10.4
HET-CAM Score ([1]; score 0-3 per Table 11, mean of 3 values): 2.5

Molecule: CC(C)(C)NC[C@H](O)COc1nsnc1N1CCOCC1 [timolol]
BCS class [2]: class 1

steady state drug flux ([3]; SLF donor, SAH pH 7.4, 37° C. receptor): 0.000378 mg.cm^−2.min^−1
Kp (permeability co-efficient) ([3]; mean of 3 values): 2 ×10⁻⁶ cm/s
Molecule: Timolol maleate salt [Pure drug dispersion]
